ChEMBL document CHEMBL4334438, “Discovery of novel glycogen synthase kinase-3α inhibitors: Structure-based virtual screening, preliminary SAR and biological evaluation for treatment of acute myeloid leukemia” (Eur J Med Chem, 2019)

Key:
[1] = molecular target: Wee1-like protein kinase (Homo sapiens) (UniProt P30291); assay: Inhibition of human Wee1 (214 to end residues) assessed as residual activity at 1 uM using LSNLYHQGKFLQTFCGSPLYRRR as substrate measured after 40 mins in presence of [gamma33P]ATP by scintillation counting method relative to control
[2] = test system: Serine/threonine-protein kinase Chk2 (Homo sapiens), O96017 [R145W]; assay: Inhibition of recombinant human CHK2 R145W mutant (5 to end residues) assessed as residual activity at 1 uM using KKKVSRSGLYRSPSMPENLNRPR as substrate incubated for 40 mins in presence of [gamma-33ATP] by scintillation counting based radiometry assay relative to control
Mus musculus = organism: Mus musculus; assay: Inhibition of recombinant full-length mouse PI3K p110alpha/p85alpha at 1 uM assessed as residual activity at 1 uM using phosphatidylinositol-4, 5-bisphosphate as substrate measured after 40 mins by HTRF assay
[3] = molecular target: Serine/threonine-protein kinase 32C (Homo sapiens) (UniProt Q86UX6); assay: Inhibition of recombinant full-length human STK32C at 1 uM assessed as residual activity at 1 uM using casein as substrate measured after 120 mins in presence of [gamma33P]ATP by scintillation counting method relative to control
Homo sapiens [4] = organism: Homo sapiens; assay: Inhibition of human activated Tec F514V mutant (174 to end residues) assessed as residual activity at 1 uM using EFPIYDFLPAKKK as substrate measured after 40 mins in presence of [gamma33P]ATP by scintillation counting method relative to control
[5] = molecular target: Rhodopsin kinase GRK1 (Homo sapiens) (UniProt Q15835); assay: Inhibition of recombinant full length human GRK1 assessed as residual activity at 1 uM using KKKKERLLDDRHDSGLDSMKDEE as substrate at 40 mins in presence of [gamma-33ATP] by scintillation counting based radiometry assay relative to control
GSK-3beta (H350L mutant) = GSK-3beta (H350L mutant) (Homo sapiens, UniProt P49841, H350L); assay: Inhibition of human GSK-3beta H350L mutant (2 to end residues) at 10 uM using phospho GS2 peptide as substrate after 40 mins by [gamma-33ATP] radiometric assay relative to control; conditions: human GSK-3beta H350L mutant enzyme (residues 2 to end), probe phospho GS2 peptide
[6] = molecular target: Tyrosine-protein kinase Fer (Homo sapiens) (UniProt P16591); assay: Inhibition of recombinant human FER (541 to end residues) assessed as residual activity at 1 uM using KKKSPGEYVNIEFG as substrate at 40 mins in presence of [gamma-33ATP] by scintillation counting based radiometry assay relative to control
[7] = molecular target: Leucine-rich repeat serine/threonine-protein kinase 2 (Homo sapiens) (UniProt Q5S007); assay: Inhibition of recombinant human LRRK2 (970 to end residues) assessed as residual activity at 1 uM using RLGRDKYKTLRQIRQ as substrate after 40 mins in presence of [gamma-33ATP] by scintillation counting based radiometry assay relative to control
[8] = molecular target: Serine/threonine-protein kinase Nek9 (Homo sapiens) (UniProt Q8TD19); assay: Inhibition of recombinant human NEK9 (1 to 324 residues) assessed as residual activity at 1 uM using myelin basic protein as substrate measured after 40 mins in presence of [gamma33P]ATP by scintillation counting method relative to control
[9] = molecular target: G protein-coupled receptor kinase 5 (Homo sapiens) (UniProt P34947); assay: Inhibition of recombinant full length human GRK5 assessed as residual activity at 1 uM using casein as substrate at 40 mins in presence of [gamma-33ATP] by scintillation counting based radiometry assay relative to control
[10] = molecular target: Tyrosine-protein kinase ITK/TSK (Homo sapiens) (UniProt Q08881); assay: Inhibition of human Itk (352 to 617 residues) assessed as residual activity at 1 uM using myelin basic protein as substrate after 40 mins by [gamma-33ATP] radiometric assay relative to control
[11] = test system: Hepatocyte growth factor receptor (Homo sapiens), P08581 [M1250T]; assay: Inhibition of recombinant human MET A1209G/V1290L/M1268T mutant (974 to end residues) assessed as residual activity at 1 uM using KKKGQEEEYVFIE as substrate incubated for 40 mins in presence of [gamma-33ATP by scintillation counting based radiometry assay relative to control
[12] = molecular target: Protein kinase C delta type (Homo sapiens) (UniProt Q05655); assay: Inhibition of recombinant human PKCdelta (2 to end residues) assessed as residual activity at 1 uM using ERMRPRKRQGSVRRRV as substrate measured after 40 mins in presence of [gamma33P]ATP by scintillation counting method relative to control
[13] = molecular target: Serine/threonine-protein kinase Nek2 (Homo sapiens) (UniProt P51955); assay: Inhibition of recombinant full-length human NEK2 assessed as residual activity at 1 uM using myelin basic protein as substrate measured after 40 mins in presence of [gamma33P]ATP by scintillation counting based radiometry assay relative to control
[14] = molecular target: Calcium/calmodulin-dependent protein kinase type II subunit gamma (Homo sapiens) (UniProt Q13555); assay: Inhibition of recombinant human CaMK2gamma (1 to 330 residues) assessed as residual activity at 1 uM […] incubated for 40 mins in presence of [gamma-33ATP] by scintillation counting based radiometry assay relative to control
[15] = molecular target: Ephrin type-A receptor 1 (Homo sapiens) (UniProt P21709); assay: Inhibition of recombinant human EphA1 (568 to end residues) assessed as residual activity at 1 uM using KKKSPGEYVNIEFG as substrate at 40 mins in presence of [gamma-33ATP] by scintillation counting based radiometry assay relative to control
[16] = molecular target: Phosphatidylinositol 4-phosphate 5-kinase type-1 gamma (Homo sapiens) (UniProt O60331); assay: Inhibition of recombinant full-length human PIP5K1gamma at 1 uM assessed as residual activity at 1 uM using phosphatidylinositol 4-phosphate as substrate measured after 40 mins by HTRF assay
[17] = molecular target: Tyrosine-protein kinase Srms (Homo sapiens) (UniProt Q9H3Y6); assay: Inhibition of human SRMS assessed as residual activity at 1 uM by radiometric method relative to control
[18] = molecular target: Hepatocyte growth factor receptor (Homo sapiens) (UniProt P08581); assay: Inhibition of recombinant human MET A1209G/V1290L mutant (974 to end residues) assessed as residual activity at 1 uM using KKKGQEEEYVFIE as substrate incubated for 40 mins in presence of [gamma-33ATP by scintillation counting based radiometry assay relative to control
Homo sapiens [19] = organism: Homo sapiens; assay: Inhibition of recombinant full length human PRAK R291E mutant assessed as residual activity at 1 uM using KKLRRTLSVA as substrate measured after 40 mins in presence of [gamma33P]ATP by scintillation counting method relative to control
[20] = molecular target: TGF-beta receptor type-2 (Homo sapiens) (UniProt P37173); assay: Inhibition of human TGFBR2 (188 to end residues) assessed as residual activity at 1 uM using myelin basic protein as substrate measured after 120 mins in presence of [gamma33P]ATP by scintillation counting method relative to control
Sequence of TGF-beta receptor type-2 (Homo sapiens) (P37173 whole entry): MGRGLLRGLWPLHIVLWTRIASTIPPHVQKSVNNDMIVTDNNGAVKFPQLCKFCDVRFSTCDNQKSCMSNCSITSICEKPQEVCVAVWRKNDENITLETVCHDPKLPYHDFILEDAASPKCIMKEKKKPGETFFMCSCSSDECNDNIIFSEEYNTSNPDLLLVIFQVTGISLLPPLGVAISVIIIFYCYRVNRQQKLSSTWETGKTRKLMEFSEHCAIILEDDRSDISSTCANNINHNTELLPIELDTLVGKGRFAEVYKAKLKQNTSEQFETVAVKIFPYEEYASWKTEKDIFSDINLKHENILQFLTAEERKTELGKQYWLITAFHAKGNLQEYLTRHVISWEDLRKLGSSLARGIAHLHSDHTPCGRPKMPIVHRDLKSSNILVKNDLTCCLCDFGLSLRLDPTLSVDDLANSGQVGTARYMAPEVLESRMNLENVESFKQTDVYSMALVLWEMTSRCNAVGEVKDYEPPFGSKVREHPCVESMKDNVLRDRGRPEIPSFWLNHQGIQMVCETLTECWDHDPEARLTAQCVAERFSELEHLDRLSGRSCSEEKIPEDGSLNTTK

Sequence of Wee1-like protein kinase (Homo sapiens) (P30291 whole entry, looked up): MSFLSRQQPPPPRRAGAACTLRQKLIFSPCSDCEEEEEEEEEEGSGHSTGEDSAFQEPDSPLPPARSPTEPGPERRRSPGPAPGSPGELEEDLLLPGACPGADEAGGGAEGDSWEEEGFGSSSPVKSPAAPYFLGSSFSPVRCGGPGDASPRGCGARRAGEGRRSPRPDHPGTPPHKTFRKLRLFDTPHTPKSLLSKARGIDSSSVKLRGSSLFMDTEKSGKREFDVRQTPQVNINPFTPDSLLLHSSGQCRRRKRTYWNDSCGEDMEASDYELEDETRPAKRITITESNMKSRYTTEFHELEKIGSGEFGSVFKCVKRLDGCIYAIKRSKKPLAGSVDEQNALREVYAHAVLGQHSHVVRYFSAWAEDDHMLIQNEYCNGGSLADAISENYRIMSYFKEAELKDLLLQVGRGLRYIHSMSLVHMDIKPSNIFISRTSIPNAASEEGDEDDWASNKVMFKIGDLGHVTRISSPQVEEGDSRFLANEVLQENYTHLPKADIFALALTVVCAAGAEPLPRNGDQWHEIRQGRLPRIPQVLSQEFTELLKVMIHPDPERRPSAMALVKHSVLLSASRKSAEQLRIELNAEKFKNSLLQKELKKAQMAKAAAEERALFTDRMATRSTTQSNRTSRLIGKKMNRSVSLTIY
Sequence of G protein-coupled receptor kinase 5 (Homo sapiens) (P34947 whole entry, looked up, the tested form may be a part): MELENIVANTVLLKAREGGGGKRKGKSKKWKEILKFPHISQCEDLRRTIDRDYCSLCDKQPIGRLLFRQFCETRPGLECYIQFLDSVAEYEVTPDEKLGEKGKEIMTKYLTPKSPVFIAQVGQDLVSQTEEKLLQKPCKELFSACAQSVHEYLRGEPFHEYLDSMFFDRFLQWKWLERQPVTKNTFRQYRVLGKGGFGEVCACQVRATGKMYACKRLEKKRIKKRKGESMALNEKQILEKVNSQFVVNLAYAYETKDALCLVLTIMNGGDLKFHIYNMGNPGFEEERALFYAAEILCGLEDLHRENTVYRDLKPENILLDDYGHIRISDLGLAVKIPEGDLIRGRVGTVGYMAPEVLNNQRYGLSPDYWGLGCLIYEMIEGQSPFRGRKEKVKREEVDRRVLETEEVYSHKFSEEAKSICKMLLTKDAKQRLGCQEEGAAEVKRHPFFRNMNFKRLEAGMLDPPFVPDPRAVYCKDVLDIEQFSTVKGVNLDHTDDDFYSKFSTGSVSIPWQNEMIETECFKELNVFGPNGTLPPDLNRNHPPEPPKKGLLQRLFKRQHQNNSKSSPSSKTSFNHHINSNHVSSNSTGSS
Sequence of Tyrosine-protein kinase ITK/TSK (Homo sapiens) (Q08881 whole entry, the tested form may be a part): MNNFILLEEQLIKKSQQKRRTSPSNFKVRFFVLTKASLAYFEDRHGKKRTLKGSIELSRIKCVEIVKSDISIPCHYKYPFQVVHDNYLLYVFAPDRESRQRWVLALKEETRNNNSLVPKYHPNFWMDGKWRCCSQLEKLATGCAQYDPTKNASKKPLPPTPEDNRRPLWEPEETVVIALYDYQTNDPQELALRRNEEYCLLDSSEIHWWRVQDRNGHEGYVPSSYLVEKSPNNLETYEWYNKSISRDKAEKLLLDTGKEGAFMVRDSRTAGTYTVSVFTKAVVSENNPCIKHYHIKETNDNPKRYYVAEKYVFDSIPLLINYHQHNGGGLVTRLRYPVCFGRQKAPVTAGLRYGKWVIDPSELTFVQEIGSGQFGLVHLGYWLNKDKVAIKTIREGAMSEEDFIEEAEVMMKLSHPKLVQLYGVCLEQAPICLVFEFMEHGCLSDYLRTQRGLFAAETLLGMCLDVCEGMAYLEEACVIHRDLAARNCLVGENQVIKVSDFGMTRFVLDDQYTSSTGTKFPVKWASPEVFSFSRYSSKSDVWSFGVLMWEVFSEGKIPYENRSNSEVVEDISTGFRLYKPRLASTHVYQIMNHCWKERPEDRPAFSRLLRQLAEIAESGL
Sequence of Serine/threonine-protein kinase Nek2 (Homo sapiens) (P51955 whole entry, the tested form may be a part): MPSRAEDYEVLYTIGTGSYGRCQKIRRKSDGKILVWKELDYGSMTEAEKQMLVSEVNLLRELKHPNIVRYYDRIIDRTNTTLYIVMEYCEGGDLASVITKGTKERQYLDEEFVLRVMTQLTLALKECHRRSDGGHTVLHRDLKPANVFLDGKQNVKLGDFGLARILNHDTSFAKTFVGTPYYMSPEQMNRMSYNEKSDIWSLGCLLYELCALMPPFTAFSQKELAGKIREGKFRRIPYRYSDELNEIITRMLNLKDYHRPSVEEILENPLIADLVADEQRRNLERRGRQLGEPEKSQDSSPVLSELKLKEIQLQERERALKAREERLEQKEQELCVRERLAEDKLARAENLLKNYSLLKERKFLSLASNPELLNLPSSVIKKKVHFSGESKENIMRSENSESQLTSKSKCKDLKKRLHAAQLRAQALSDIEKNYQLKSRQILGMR
Sequence of Ephrin type-A receptor 1 (Homo sapiens) (P21709 whole entry): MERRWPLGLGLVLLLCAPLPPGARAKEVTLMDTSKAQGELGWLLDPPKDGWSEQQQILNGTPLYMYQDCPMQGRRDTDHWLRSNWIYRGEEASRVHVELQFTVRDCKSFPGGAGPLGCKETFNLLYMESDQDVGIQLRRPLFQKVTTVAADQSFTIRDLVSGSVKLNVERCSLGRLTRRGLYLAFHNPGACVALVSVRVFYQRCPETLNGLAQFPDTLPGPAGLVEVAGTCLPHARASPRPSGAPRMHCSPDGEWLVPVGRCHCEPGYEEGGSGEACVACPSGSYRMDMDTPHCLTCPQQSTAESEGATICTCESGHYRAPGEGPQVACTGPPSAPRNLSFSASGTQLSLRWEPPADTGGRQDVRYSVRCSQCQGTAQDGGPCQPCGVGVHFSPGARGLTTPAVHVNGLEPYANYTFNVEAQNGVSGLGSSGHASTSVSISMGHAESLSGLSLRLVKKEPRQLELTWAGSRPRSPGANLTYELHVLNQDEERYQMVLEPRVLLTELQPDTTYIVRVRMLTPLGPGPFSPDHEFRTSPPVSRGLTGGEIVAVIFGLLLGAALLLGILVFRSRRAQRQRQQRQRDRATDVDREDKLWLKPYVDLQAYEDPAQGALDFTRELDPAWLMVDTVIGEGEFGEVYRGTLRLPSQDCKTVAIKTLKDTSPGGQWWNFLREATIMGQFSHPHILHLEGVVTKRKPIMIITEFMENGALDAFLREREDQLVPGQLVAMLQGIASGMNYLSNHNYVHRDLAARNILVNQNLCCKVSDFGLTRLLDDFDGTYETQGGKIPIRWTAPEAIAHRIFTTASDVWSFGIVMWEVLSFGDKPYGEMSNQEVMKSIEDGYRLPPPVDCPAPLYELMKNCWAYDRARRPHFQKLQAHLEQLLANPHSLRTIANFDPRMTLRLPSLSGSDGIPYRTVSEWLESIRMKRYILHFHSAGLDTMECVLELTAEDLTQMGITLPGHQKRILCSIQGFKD
Sequence of Serine/threonine-protein kinase Chk2 (Homo sapiens), O96017 [R145W] (O96017 whole entry R145W): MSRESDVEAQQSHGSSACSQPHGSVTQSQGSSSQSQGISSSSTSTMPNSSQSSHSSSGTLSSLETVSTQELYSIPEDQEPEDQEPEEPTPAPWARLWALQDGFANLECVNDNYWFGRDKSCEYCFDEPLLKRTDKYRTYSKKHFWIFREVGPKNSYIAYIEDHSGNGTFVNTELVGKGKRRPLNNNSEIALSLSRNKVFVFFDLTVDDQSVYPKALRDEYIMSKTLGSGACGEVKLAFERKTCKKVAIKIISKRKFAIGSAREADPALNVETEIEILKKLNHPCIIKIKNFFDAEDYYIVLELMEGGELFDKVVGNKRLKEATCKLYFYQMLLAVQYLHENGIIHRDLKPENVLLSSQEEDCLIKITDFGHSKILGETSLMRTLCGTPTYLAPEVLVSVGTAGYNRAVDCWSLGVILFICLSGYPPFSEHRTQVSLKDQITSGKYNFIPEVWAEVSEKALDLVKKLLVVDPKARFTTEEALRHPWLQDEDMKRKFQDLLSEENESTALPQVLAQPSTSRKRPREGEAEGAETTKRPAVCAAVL
Sequence of Rhodopsin kinase GRK1 (Homo sapiens) (Q15835 whole entry, the tested form may be a part): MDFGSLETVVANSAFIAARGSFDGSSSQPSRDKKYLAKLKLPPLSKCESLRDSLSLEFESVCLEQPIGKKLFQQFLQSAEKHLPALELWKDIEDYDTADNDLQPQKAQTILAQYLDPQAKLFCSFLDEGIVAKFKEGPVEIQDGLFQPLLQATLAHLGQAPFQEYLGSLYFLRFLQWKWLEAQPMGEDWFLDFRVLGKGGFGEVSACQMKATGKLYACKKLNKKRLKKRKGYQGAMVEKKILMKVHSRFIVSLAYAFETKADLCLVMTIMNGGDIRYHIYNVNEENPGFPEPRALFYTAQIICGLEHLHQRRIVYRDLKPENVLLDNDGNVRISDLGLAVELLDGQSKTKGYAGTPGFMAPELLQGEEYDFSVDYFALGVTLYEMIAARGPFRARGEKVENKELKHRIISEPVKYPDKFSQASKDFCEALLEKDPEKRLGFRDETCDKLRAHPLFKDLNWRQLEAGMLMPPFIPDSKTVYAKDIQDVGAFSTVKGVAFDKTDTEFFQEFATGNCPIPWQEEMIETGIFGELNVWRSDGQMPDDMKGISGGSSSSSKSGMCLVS

Row | Compound | Activity [1] [%] | Activity [2] [%] | Activity (Mus musculus) [%] | Activity [3] [%] | Activity (Homo sapiens [4]) [%] | Activity [5] [%] | inhibition at 40 min, 10 µM (GSK-3beta (H350L mutant)) [%] | Activity [6] [%] | Activity [7] [%] | Activity [8] [%] | Activity [9] [%] | Activity [10] [%] | Activity [11] [%] | Activity [12] [%] | Activity [13] [%] | Activity [14] [%] | Activity [15] [%] | Activity [16] [%] | Activity [17] [%] | Activity [18] [%] | further results
1 | C=CCOC(=O)c1cc(-c2ccc(/C=C3/NC(=S)NC3=O)o2)ccc1Cl | 106 | 91 | 93 | 94 | 99 | 104 | 92 | 105 | 100 | 101 | 79 | 107 | 101 | 96 | 101 | 68 | 104 | 100 | 114 | 102 | Activity (Homo sapiens [19]): 82%; Activity [20]: 90%
2 | N=C1NC(=O)/C(=C\c2ccc(-c3cccc([N+](=O)[O-])c3)o2)S1 | 103 | 99 | 97 | 101 | 96 | 97 | 95 | 93 | 99 | 103 | 100 | 98 | 82 | 103 | 95 | 86 | 100 | 101 | 95 | 96 | Activity (Homo sapiens [19]): 71%; Activity [20]: 61%
